Experimental findings from US11111214B2 (priority 2013, dated 2021) are described below.

In assay [1] the target is T1, KOR (kappa opioid receptor) (Homo sapiens, UniProt P41145).
T1 construct: expressed in transfected cells; host or cells: CHO-K1 cells stably expressing KOR
The assay can be described thus: cell-based.

For assay [2], the target named is T2, recombinant human kappa (KOR) opioid receptor (Homo sapiens, UniProt P41145).
T2 construct: expressed in transfected cells; host or cells: CHO-K1 cell membranes
T2 sequence (P41145 whole entry): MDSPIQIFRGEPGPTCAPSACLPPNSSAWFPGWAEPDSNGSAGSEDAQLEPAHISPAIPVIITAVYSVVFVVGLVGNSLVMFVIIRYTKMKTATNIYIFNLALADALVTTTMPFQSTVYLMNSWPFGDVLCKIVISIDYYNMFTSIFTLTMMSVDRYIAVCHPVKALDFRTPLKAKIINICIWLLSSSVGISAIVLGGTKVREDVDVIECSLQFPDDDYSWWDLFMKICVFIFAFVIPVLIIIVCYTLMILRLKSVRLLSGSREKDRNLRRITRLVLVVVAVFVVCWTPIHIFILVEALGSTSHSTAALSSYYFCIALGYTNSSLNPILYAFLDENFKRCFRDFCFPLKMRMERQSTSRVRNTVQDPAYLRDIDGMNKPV
The assay can be described thus: biochemical. Type of assay: binding.

The target of assay [3] is T3, recombinant human mu (MOR) opioid receptor (Homo sapiens, UniProt P35372).
T3 construct: expressed in transfected cells; host or cells: CHO-K1 cell membranes
T3 sequence (P35372 whole entry): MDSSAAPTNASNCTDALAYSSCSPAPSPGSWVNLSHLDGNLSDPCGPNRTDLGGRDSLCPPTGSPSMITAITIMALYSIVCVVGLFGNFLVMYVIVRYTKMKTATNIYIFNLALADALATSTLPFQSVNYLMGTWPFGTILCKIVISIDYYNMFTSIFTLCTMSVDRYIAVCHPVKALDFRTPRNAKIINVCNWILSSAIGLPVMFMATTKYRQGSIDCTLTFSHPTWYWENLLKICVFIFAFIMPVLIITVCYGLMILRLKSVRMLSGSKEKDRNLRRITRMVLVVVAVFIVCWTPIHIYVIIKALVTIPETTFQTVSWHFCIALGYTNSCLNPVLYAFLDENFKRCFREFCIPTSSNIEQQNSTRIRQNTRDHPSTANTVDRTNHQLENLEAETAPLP
The assay can be described thus: biochemical. Format: binding. To be noted: for inhibition at 10 µM: read-out: Mu receptor % inhibition at single concentration, % inhibition @ 10 μM.

The EC50 is the concentration giving half of the maximal effect. By IC50 is commonly meant the concentration needed to halve the response being measured. For orientation: Ki means a measure of affinity in units of concentration, obtained from inhibition or displacement.

T1 sequence (P41145 whole entry): as the sequence (P41145 whole entry) above

In turn, `CN(C(=O)Cc1ccc(Cl)c(Cl)c1)[C@H](CN1CCCC1)c1cccc(NS(C)(=O)=O)c1` [compound 14, 2-(3,4-dichlorophenyl)-N-methyl-N-[(1S)-1-{3-[(methylsulfonyl)amino]phenyl}-2-(pyrrolidin-1-yl)ethyl]acetamide] had an EC50 in assay [1] of 0.05 nM. Also, in assay [2], the IC50 came out at 0.34 nM and the Ki worked out at 0.08 nM. Further, in assay [3], the inhibition at 10 µM was determined as 99.3%.
Consider `COCCOCCOCCOCCOCCNC(=O)Nc1cccc([C@@H](CN2CCCC2)N(C)C(=O)Cc2ccc(Cl)c(Cl)c2)c1` [compound 15, 2-(3,4-dichlorophenyl)-N-methyl-N-[(1S)-1-{3-[(2,5,8,11,14-pentaoxahexadecan-16-ylcarbamoyl)amino]phenyl}-2-(pyrrolidin-1-yl)ethyl]acetamide], for which the EC50 in assay [1] is 0.42 nM. In assay [2], the IC50 was found to be 2.33 nM and the Ki was determined as 0.54 nM. In assay [3], the inhibition at 10 µM came out at 84.1%.
`COCCOCCOCCOCCOCCNC(=O)Nc1cccc([C@@H](CN2CCCC2)N(C)C(=O)C(c2ccc(Cl)cc2)c2ccc(Cl)cc2)c1` [compound 16, 2,2-Bis(4-chlorophenyl)-N-methyl-N-[(1S)-1-{3-[(2,5,8,11,14-pentaoxahexadecan-16-ylcarbamoyl)amino]phenyl}-2-(pyrrolidin-1-yl)ethyl]acetamide] yielded an EC50 in assay [1] of 15.1 nM. In assay [2], the IC50 came out at 62.7 nM and the Ki stood at 14.5 nM. In assay [3], the inhibition at 10 µM was determined as 27.1%.
The corresponding values for `COCCOCCOCCO[C@H]1CCN(C[C@H](c2cccc(NS(C)(=O)=O)c2)N(C)C(=O)Cc2ccc(Cl)c(Cl)c2)C1` [compound 17, 2-(3,4-dichlorophenyl)-N-[(1S)-2-[(3S)-3-{2-[2-(2-methoxyethoxy)ethoxy]ethoxy}pyrrolidin-1-yl]-1-{3-[(methylsulfonyl)amino]phenyl}ethyl]-N-methylacetamide] are 67.3 nM, 1570 nM, 362 nM and 81.9%.
In the same order, the values of `COCCS(=O)(=O)Nc1cccc([C@@H](CN2CCCC2)N(C)C(=O)Cc2ccc(Cl)c(Cl)c2)c1` [compound 18, 2-(3,4-dichlorophenyl)-N-[(1S)-1-(3-{[(2-methoxyethyl)sulfonyl]amino}phenyl)-2-(pyrrolidin-1-yl)ethyl]-N-methylacetamide] are 0.09 nM, 0.57 nM, 0.13 nM and 97.8%.
For the molecule `COCCOCCS(=O)(=O)Nc1cccc([C@@H](CN2CCCC2)N(C)C(=O)Cc2ccc(Cl)c(Cl)c2)c1` [compound 20, 2-(3,4-dichlorophenyl)-N-[(1S)-1-[3-({[2-(2-methoxyethoxy)ethyl]sulfonyl}amino)phenyl]-2-(pyrrolidin-1-yl)ethyl]-N-methylacetamide], in assay [1], the EC50 is 0.15 nM. Moreover, in assay [2], the IC50 is 0.6 nM and the Ki was 0.14 nM. Moreover, the inhibition at 10 µM in assay [3] was determined as 97.1%.
The corresponding values for `CCCCOCCOCCOCCS(=O)(=O)Nc1cccc([C@@H](CN2CCCC2)N(C)C(=O)Cc2ccc(Cl)c(Cl)c2)c1` [compound 21, N-[(1S)-1-{3-[({2-[2-(2-butoxyethoxy)ethoxy]ethyl}sulfonyl)amino]phenyl}-2-(pyrrolidin-1-yl)ethyl]-2-(3,4-dichlorophenyl)-N-methylacetamide] are 0.2 nM, 0.18 nM, 0.04 nM and 96.5%.
The corresponding values for `CN(C(=O)Cc1ccc(Cl)c(Cl)c1)[C@H](CN1CCCC1)c1cccc(NS(=O)(=O)C2CS(=O)(=O)CC2O)c1` (stereo partly drawn) [compound 22, 2-(3,4-dichlorophenyl)-N-[(1S)-1-(3-{[(4-hydroxy-1,1-dioxidotetrahydrothiophen-3-yl)sulfonyl]amino}phenyl)-2-(pyrrolidin-1-yl)ethyl]-N-methylacetamide] are 0.03 nM, 0.32 nM, 0.07 nM and 90.2%.
In assay [1], `CN(C(=O)Cc1ccc(Cl)c(Cl)c1)[C@H](CN1CC[C@H](OCC(=O)O)C1)c1ccccc1` [compound 24, ({(3S)-1-[(2S)-2-{[(3,4-dichlorophenyl)acetyl](methyl)amino}-2-phenylethyl]pyrrolidin-3-yl}oxy)acetic Acid] gave a concentration giving a half-maximal response (EC50) of 265 nM. Moreover, in assay [2], the IC50 was determined as 3590 nM and the Ki was 468 nM. In addition, in assay [3], the IC50 came to 158000 nM and the inhibition at 10 µM was -7.9%.
For the molecule `CN(C(=O)Cc1ccc(Cl)c(Cl)c1)[C@H](CN1CC[C@H](OCCO)C1)c1ccccc1` [compound 25, 2-(3,4-Dichlorophenyl)-N-{(1S)-2-[(3S)-3-(2-hydroxyethoxy)pyrrolidin-1-yl]-1-phenylethyl}-N-methylacetamide], the EC50 in assay [1] was 4.07 nM. Besides, in assay [2], the IC50 was 31.8 nM and the Ki was 4.15 nM. Besides, in assay [3], the IC50 was determined as 4510 nM and the inhibition at 10 µM was 57.5%.
As for `CN(C(=O)Cc1ccc(Cl)c(Cl)c1)[C@H](CN1CC[C@H](OCCOCCO)C1)c1ccccc1` [compound 26, 2-(3,4-Dichlorophenyl)-N-[(1S)-2-{(3S)-3-[2-(2-hydroxyethoxy)ethoxy]pyrrolidin-1-yl}-1-phenylethyl]-N-methylacetamide], a half-maximal effect in assay [1] (EC50) was put at 14.3 nM. Moreover, in assay [2], the IC50 came out at 1130 nM and the Ki is 148 nM. Also, in assay [3], the IC50 was determined as 38700 nM and the inhibition at 10 µM was determined as 35.1%.
In the same order, the values of `CN(C(=O)Cc1ccc(Cl)c(Cl)c1)[C@H](CN1CC[C@H](OCCOCCOCCO)C1)c1ccccc1` [compound 27, 2-(3,4-Dichlorophenyl)-N-{(1S)-2-[(3S)-3-{2-[2-(2-hydroxyethoxy)ethoxy]ethoxy}pyrrolidin-1-yl]-1-phenylethyl}-N-methylacetamide] are 4.38 nM, 106 nM, 13.8 nM, 9220 nM and 50.4%.
In assay [1], `CN(C(=O)Cc1ccc(Cl)c(Cl)c1)[C@H](CN1CC[C@H](OCCOCC(=O)O)C1)c1ccccc1` [compound 28, [2-({(3S)-1-[(2S)-2-{[(3,4-Dichlorophenyl)acetyl](methyl)amino}-2-phenylethyl]pyrrolidin-3-yl}oxy)ethoxy]acetic Acid] came in with an EC50 of 148 nM. In assay [2], the IC50 was 2100 nM and the Ki turned out to be 274 nM. Further, in assay [3], the IC50 came out at 73400 nM and the inhibition at 10 µM was found to be 4.9%.
In the same order, the values of `CN(C(=O)Cc1ccc(Cl)c(Cl)c1)[C@H](CN1CC[C@H](OCCOCCOCC(=O)O)C1)c1ccccc1` [compound 29, {2-[2-({(3S)-1-[(2S)-2-{[(3,4-Dichlorophenyl)acetyl](methyl)amino}-2-phenylethyl]pyrrolidin-3-yl}oxy)ethoxy]ethoxy}acetic Acid] are 41.2 nM, 580 nM, 111 nM, 25900 nM and 30.5%.
Regarding `CCCCOCCOCCOCCS(=O)(=O)Nc1cccc([C@@H](CN2CCCC2)N(C)C(=O)Cc2ccccn2)c1` [compound 30, N-[(1S)-1-{3-[({2-[2-(2-Butoxyethoxy)ethoxy]ethyl}sulfonyl)amino]phenyl}-2-(pyrrolidin-1-yl)ethyl]-N-methyl-2-(pyridin-2-yl)acetamide], it took 38.9 nM to reach a half-maximal effect in assay [1] (EC50). In assay [2], the IC50 is 464 nM and the Ki is 60.5 nM. The inhibition at 10 µM in assay [3] turned out to be 85.5%.
The corresponding values for `COCCOCCOCCO[C@H]1CCN(C[C@H](c2ccc(OCCO)cc2)N(C)C(=O)Cc2ccc(Cl)c(Cl)c2)C1` [compound 37, 2-(3,4-Dichlorophenyl)-N-{(1S)-1-[4-(2-hydroxyethoxy)phenyl]-2-[(3S)-3-{2-[2-(2-methoxyethoxy)ethoxy]ethoxy}pyrrolidin-1-yl]ethyl}-N-methylacetamide] are 4.15 nM, 98.1 nM, 22.6 nM and 57.8%.
In the case of `CN(C(=O)Cc1ccc(Cl)c(Cl)c1)[C@H](CN1CC[C@H](O)C1)c1ccc(OCCO)cc1` [compound 38, 2-(3,4-dichlorophenyl)-N—((S)-1-(4-(2-hydroxyethoxy)phenyl)-2-((S)-3-hydroxypyrrolidin-1-yl)ethyl)-N-methylacetamide], the EC50 in assay [1] came out at 0.03 nM. In assay [2], the IC50 was 0.49 nM and the Ki is 0.06 nM. The inhibition at 10 µM in assay [3] was found to be 87.2%.
In assay [1], `COCCOCCOCCOCCOCCN1CCN(C[C@H](c2ccccc2)N(C)C(=O)Cc2ccc(Cl)c(Cl)c2)CC1` [compound 39, (S)—N-(2-(4-(2,5,8,11,14-pentaoxahexadecan-16-yl)piperazin-1-yl)-1-phenylethyl)-2-(3,4-dichlorophenyl)-N-methylacetamide] showed an EC50 of 1950 nM. In assay [2], the IC50 was determined as 18500 nM and the Ki turned out to be 4270 nM. Besides, in assay [3], the inhibition at 10 µM was 9.6%.
In the same order, the values of `COCCOCCOCCOCCOCCOCCOCCOC(=O)N[C@H](C(=O)Nc1cccc([C@@H](CN2CC[C@H](O)C2)N(C)C(=O)Cc2ccc(Cl)c(Cl)c2)c1)C(C)C` [compound 48, N-(3-{(1S)-1-{[(3,4-Dichlorophenyl)acetyl](methyl)amino}-2-[(3S)-3-hydroxypyrrolidin-1-yl]ethyl}phenyl)-N^2-2,5,8,11,14,17,20,23-octaoxatetracosan-1-oylvalinamide] are 0.43 nM, 3.48 nM, 0.8 nM and 73.2%.
